Test [1] deals with phospho-akt (thr308), phospho-PKC delta (thr505), phospho-PKC (thr538), phospho-PKC zeta (thr410). The test can be described thus: Phospho-PKC detection using immunoblot in PC-3 cells. The test is classed as cell-based. Particulars: FIG. 2; at 2 hours and 18 hours. Here is the method:
The Phospho-PKC Detection was performed using immunoblot analysis as follows. The cell activity of test compounds, were assessed using immunoblot analysis for phospho-akt (thr308), phospho-PKC delta (thr505), phospho-PKC (thr538) and phospho-PKC zeta (thr410).
PC-3 prostate cells were plated in a 100 mm tissue culture dish in F12K media (Invitrogen, Carlsbad, Calif.) plus 10% FBS (Invitrogen) and placed in incubator overnight. The stocks of test compounds were a 50 mM solution in DMSO. For some test compounds a 5 mM solution was made in DMSO then directly diluted (1 μM and 5 μM final concentration) into fresh media with no serum. For other test compounds the 50 mM stock was directly diluted (10 μM and 30 μM final concentrations) into fresh media with no serum. For the control, DMSO was added to media with no serum at a final concentration of 0.1%. Cells were incubated with compound for 2 hrs or 18 hrs at 37° C. Cells were harvested and washed in PBS and subjected to centrifugation at 3,300 rpm for 5 minutes. The cell pellet was lysed in 150 μl Pierce (Rockford, Ill.) M-PER lysis buffer plus protease inhibitors and phosphatase inhibitors (Sigma, St. Louis, Mo.) for 30 minutes on ice followed by centrifugation at 13,000 rpm for 5 minutes. The protein content of the supernatant was assayed using DC Protein Assay (BioRad, Hercules, Calif.). […]

Test [2] relates to phospho-akt (Thr308). The test can be described thus: phospho-akt (Thr308) MSD ELISA in PC-3 cells. The test is classed as cell-based. Particulars: Homo sapiens, PC-3 cells; for EC50: PC-3, 2 h, 2 hours, no serum; for inhibition at 1 µM / inhibition at 10 µM: read-out: Percent Inhibition of phospho-Akt (308) By MSD ELISA. Put shortly:
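Read-out is MSD electrochemiluminescence after lysate capture overnight at 4 degrees and 1 hr RT detection-antibody step. Before lysis, overnight-plated PC-3 cells received three-fold serial dilutions of inhibitor in serum-free medium, with DMSO-only high controls.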

Test [3] deals with Phospho-T308 Akt. The test can be described thus: Phospho-T308 Akt detection using immunoblot (western blot) in PC-3 cells. The test is classed as cell-based. The settings on record: for Reduction of Cellular Levels of Akt p308 By Western: 2 hour incubation, concentration not given in Table 2. Put shortly:
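PC-3 prostate cells, cultured overnight in F12K plus 10% FBS, were treated for 2 h at 37 °C in serum-free medium with compound A (1000× DMSO dilutions). Lysate protein was immunoblotted with anti-phospho-Akt Thr308. Bands were quantified by background-subtracted densitometry, giving EC50 by non-linear regression and percent decrease at 2 μM and 5 μM.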

For test [4], the target named is full-length PDK1 (Homo sapiens (Human), UniProt O15530). As to the kind of experiment: PDK phosphorylation of AKT and PKC-PIFtide in presence of PIP3 vesicles. Format: biochemical. Particulars: substrates PKC-PIFtide vs AKT2. As to the method: PDK phosphorylation of two different substrates, AKT and PKC-PIFtide, was measured in presence of pre-formed phophoinositol lipid PIP3 vesicles. 5 nM full-length PDK1 and was incubated with 100 nM substrate (unphosphorylated, full-length AKT2 or PKC-PIFtide, Invitrogen cat#P2925) in presence of test compound or DMSO at room temperature for 3 hours. Final buffer conditions were 10 mM Tris pH 7.5 buffer containing 10 mM MgCl2, 0.002% Triton X-100, 1 mM DTT, 0.2 mg/ml BSA, 10 uM PtdIns(3,4,5)P3 (Matreya, Inc), 100 uM DOPC:DOPS (Avanti Polar Lipids), and 0.5 uCi γ^33P-ATP (3000 Ci/mmol, Perkin-Elmer.)
Kinase reactions were stopped with addition of 50 uM non-labelled ATP and 5 mM EDTA, then acidified with 0.5% final concentration phosphoric acid. Labeled proteins were collected in Whatman P81 filter plates and washed with three 150 ul volumes of 0.5% phosphoric acid.
Lipid vesicles were pre-formed as follows. 15 mg (3 ampules) DOPC:DOPS was resuspended in 898 ul 10 mM HEPES pH 7.4. 1 mg PIP3 was resuspended in 1000 ul 10 mM HEPES pH 7.4. 964 ul of PIP3 was mixed with 800 ul DOPC:DOPS and diluted with 18.2 ml 10 mM HEPES pH 7.4 and mixed by vortexing. The lipid mixture was subjected to 5 cycles of freeze/thaw using liquid nitrogen and a 50° C. water bath. Aliquot of lipids were flash frozen and stored at −20° C.

The target of test [5] is dephosphorylated PDK1 (Homo sapiens (Human), UniProt O15530). As to the kind of experiment: PDK1 kinase assay (coupled PDK1/AKT/FAM-crosstide, IMAP). Format: biochemical. Particulars: 25 nM un-phosphorylated PDK1, 24 μM ATP; read-out: Inhibition of dephospo-PDK1 in vitro IC50. The method, boiled down:
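The FAM-crosstide phosphorylation readout was IMAP polarization (ex 485/em 530 nm, 2 h binding), with 4-parameter fits of ΔmP data. The reaction ran 30 min at 25 °C with 24 μM ATP, and contained 25 nM phosphatase-treated PDK1 (aa 51–360) plus 30 nM unphosphorylated AKT2-PIFtide and 100 nM substrate. Buffer was 10 mM Tris pH 7.2, 10 mM MgCl2, 0.01% Triton X-100 and 1 mM DTT.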

For test [6], the target named is phosphorylated PDK1 (Homo sapiens (Human), UniProt O15530). The test is described as above. The settings on record: 0.5 nM phosphorylated PDK1, 24 μM ATP; read-out: Inhibition of phospo-PDK1 in vitro IC50. The test is classed as biochemical.
Setting [7] is: read-out: Inhibition of P308 Akt in cells using MSD EC50.
The mark [8] stands for this setting: read-out: Reduction of Cellular Levels of Akt p308 By MSD ELISA (EC50 μM).
Setting [9] is: Homo sapiens, read-out: Percent Inhibition of phospho-Akt (308) By Western.

Read-outs that look alike come from different tables or passages of the source.

phosphorylated PDK1, sequence (O15530 51-360): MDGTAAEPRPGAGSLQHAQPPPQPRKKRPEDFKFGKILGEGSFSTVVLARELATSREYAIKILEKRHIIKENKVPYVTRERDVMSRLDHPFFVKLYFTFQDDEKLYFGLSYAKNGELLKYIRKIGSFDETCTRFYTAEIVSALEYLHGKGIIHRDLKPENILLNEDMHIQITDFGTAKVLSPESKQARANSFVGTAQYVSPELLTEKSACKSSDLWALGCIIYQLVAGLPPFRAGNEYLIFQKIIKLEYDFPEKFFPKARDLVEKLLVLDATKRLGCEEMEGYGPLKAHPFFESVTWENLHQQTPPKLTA
dephosphorylated PDK1, sequence (O15530 51-360): as above
full-length PDK1, sequence (O15530 whole entry): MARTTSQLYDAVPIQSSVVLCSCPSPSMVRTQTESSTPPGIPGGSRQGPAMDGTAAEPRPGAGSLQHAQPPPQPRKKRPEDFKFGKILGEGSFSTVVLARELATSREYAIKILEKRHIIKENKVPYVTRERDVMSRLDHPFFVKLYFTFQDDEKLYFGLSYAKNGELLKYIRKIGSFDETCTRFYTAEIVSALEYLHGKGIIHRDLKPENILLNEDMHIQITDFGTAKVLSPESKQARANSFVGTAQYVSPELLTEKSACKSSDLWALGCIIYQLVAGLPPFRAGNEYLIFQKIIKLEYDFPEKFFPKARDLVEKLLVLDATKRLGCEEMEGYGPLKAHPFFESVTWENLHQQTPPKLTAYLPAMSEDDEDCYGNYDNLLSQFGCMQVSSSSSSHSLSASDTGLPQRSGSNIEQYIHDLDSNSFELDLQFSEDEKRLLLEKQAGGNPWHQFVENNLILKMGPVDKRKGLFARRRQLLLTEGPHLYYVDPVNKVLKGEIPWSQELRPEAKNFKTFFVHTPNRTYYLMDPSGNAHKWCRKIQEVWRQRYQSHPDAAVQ

Regarding `O=C(N[C@@H](COc1ccc2[nH]c(=O)[nH]c2c1)c1ccccc1)c1cccn(Cc2ccc(F)c(F)c2)c1=O` [Cpd 144], in test [1], the “inhibition of PDK1 mediated phosphorylation of Akt relative to PKC isoforms” value is reported as “selective inhibition of PDK1 mediated phosphorylation of Akt relative to PDK1 mediated phosphorylation of PKC isoforms”. Further, the EC50 in test [2] (setting [7]) and in test [2] (setting [8]) was less than 1 µM each time. Further, in test [3], the “Reduction of Cellular Levels of Akt p308 By Western” value (shortened to “Reduction”) is listed as “bbb (inhibition of more than 75%)”. Moreover, the inhibition at 2 µM in test [3] (Homo sapiens, at 2 μM, read-out: Percent Inhibition of phospho-Akt (308) By Western) was more than 75%.

Turning to `O=C(NCCCCc1c[nH]c2ncccc12)c1cccn(Cc2ccc(F)c(F)c2)c1=O` [Cpd 110], the “Ratio of PIP3 IC50 with PKCtide to PIP3 IC50 with AKT” value (“Ratio of PIP3 IC50 with PKCtide” for short) in test [4] was found to be 13.5. The IC50 in test [5] and in test [6] was less than 500 nM throughout.

Turning to `COc1ccnc(NCCC#CCNC(=O)c2cccn(Cc3ccc(F)c(F)c3)c2=O)n1` [Cpd 109], in test [4], the “Ratio of PIP3 IC50 with PKCtide” value was 51.8. Moreover, the IC50 in test [5] and in test [6] was less than 500 nM throughout.

For the compound `O=C(NCc1ccc(-c2c[nH]c3ncccc23)s1)c1cccn(Cc2ccc(F)c(F)c2)c1=O` [Cpd 2], the concentration for a half-maximal effect (EC50) in test [2] (setting [7]) and in test [2] (setting [8]) was 1 to 5 µM in each case. The “Ratio of PIP3 IC50 with PKCtide” value in test [4] amounted to 36.7. Further, the concentration for half-maximal inhibition (IC50) in test [5] and in test [6] was less than 500 nM each time.

In the case of `NC(=O)C[C@@H](NC(=O)c1cccn(Cc2ccc(F)c(F)c2)c1=O)c1ncc(-c2c[nH]c3ncccc23)o1` [Cpd 306], the inhibition at 1 µM in test [2] is less than 25%. In addition, the inhibition at 10 µM in test [2] fell in the range of 25 to 75%. In addition, the “Reduction” value in test [3] was “bbb (inhibition of more than 75%)”. The inhibition at 5 µM in test [3] (setting [9]) is more than 75%. The concentration for half-maximal inhibition (IC50) in test [5] and in test [6] was less than 500 nM throughout.

Turning to `O=C(NCc1noc(-c2c[nH]c3ncccc23)n1)c1cccn(Cc2ccc(Cl)c(F)c2)c1=O` [Cpd 304], in test [2] (setting [7]), the half-maximal effective concentration (EC50) was in the range of 1 to 5 µM. Also, the inhibition at 1 µM in test [2] was less than 25%. In test [2], the inhibition at 10 µM is more than 75%. The “Reduction” value in test [3] is “bbb (inhibition of more than 75%)”. The inhibition at 5 µM in test [3] (setting [9]) was more than 75%. For the same compound, the 50% inhibitory concentration (IC50) in test [5] and in test [6] was less than 500 nM in each case.

`NC[C@@H](NC(=O)c1cccn(Cc2ccc(F)c(F)c2)c1=O)c1nc(-c2c[nH]c3ncccc23)cs1` [Cpd 296]: the EC50 in test [2] (setting [7]) was 1 to 5 µM. For the same compound, in test [2], the inhibition at 1 µM is less than 25% and the inhibition at 10 µM is more than 75%. The “Reduction” value in test [3] is listed as “bb (inhibition of from 25% to 75%)”. Moreover, the inhibition at 5 µM in test [3] (setting [9]) fell in the range of 25 to 75%. Moreover, the IC50 in test [5] was less than 500 nM. Besides, in test [6], the IC50 is less than 500 nM.

For `O=C(Nc1c(F)cccc1Oc1ccc2[nH]c(=O)[nH]c2c1)c1cccn(Cc2ccc(F)c(F)c2)c1=O` [Cpd 133], in test [2], the inhibition at 1 µM is less than 25% and the inhibition at 10 µM is 25 to 75%. For the same compound, the “Reduction” value in test [3] is on record as “bbb (inhibition of more than 75%)”. Further, the inhibition at 5 µM in test [3] (setting [9]) was more than 75%. The IC50 in test [5] is less than 500 nM. Besides, in test [6], the IC50 is less than 500 nM.

For `CN(C)C(=O)C[C@@H](NC(=O)c1cccn(Cc2ccc(F)c(F)c2)c1=O)c1nnc(-c2c[nH]c3ncccc23)o1` [Cpd 290], in test [2], the inhibition at 1 µM is less than 25% and the inhibition at 10 µM lay in the range of 25 to 75%. The “Reduction” value in test [3] is given as “bb (inhibition of from 25% to 75%)”. Further, the inhibition at 5 µM in test [3] (setting [9]) is 25 to 75%. In addition, the half-inhibitory concentration (IC50) in test [5] is less than 500 nM. For the same compound, in test [6], the IC50 lay within 500 to 10000 nM.

`COc1ccnc(NCCC#CCCNC(=O)c2cccn(Cc3cccc(Cl)c3)c2=O)n1` [Cpd 102]: in test [4], the “Ratio of PIP3 IC50 with PKCtide” value is reported as 19.1. Further, the 50% inhibitory concentration (IC50) was less than 500 nM in test [5] and 500 to 10000 nM in test [6].

In the case of `NC[C@@H](NC(=O)c1cccn(Cc2ccc(F)c(F)c2)c1=O)c1nnc(-c2c[nH]c3ncccc23)o1` [Cpd 283], the EC50 in test [2] (setting [7]) and in test [2] (setting [8]) was 1 to 5 µM throughout. Further, the “Reduction” value in test [3] was “bb (inhibition of from 25% to 75%)”. For the same compound, the inhibition at 5 µM in test [3] (setting [9]) fell in the range of 25 to 75%. Further, the half-maximal inhibitory concentration (IC50) in test [5] and in test [6] was less than 500 nM each time.

As for `COC(=O)c1cc(-c2cccc(CNC(=O)c3cccn(Cc4ccc(F)c(F)c4)c3=O)c2)c[nH]1` [Cpd 230], in test [2], the inhibition at 1 µM lay within 25 to 75% and the inhibition at 10 µM was more than 75%. For the same compound, in test [3], the “Reduction” value is listed as “b (inhibition of less 25%)”. Also, the inhibition at 5 µM in test [3] (setting [9]) was less than 25%. For the same compound, the concentration for half-maximal inhibition (IC50) in test [5] was less than 500 nM. In addition, the half-maximal inhibitory concentration (IC50) in test [6] is less than 500 nM.

As to `O=C(NCc1noc(-c2c[nH]c3ncccc23)n1)c1cc(Cl)cn(Cc2cccc(F)c2)c1=O` [Cpd 310], the concentration for a half-maximal effect (EC50) in test [2] (setting [7]) lay in the range of 1 to 5 µM. Also, in test [2], the inhibition at 1 µM fell in the range of 25 to 75% and the inhibition at 10 µM lay within 25 to 75%. Further, the “Reduction” value in test [3] is on record as “bb (inhibition of from 25% to 75%)”. Further, in test [3] (setting [9]), the inhibition at 5 µM is 25 to 75%. The IC50 in test [5] was less than 500 nM. In addition, the IC50 in test [6] is less than 500 nM.

Values taken from patent publication US9873693B2 (Sunesis Pharmaceuticals, Inc., priority 2006, dated 2018).
